# Assay results published in article PMC5218480 (PLoS ONE, 2017).
# Tested on: MV-4-11 cells
# Test: Gene expression microarray analysis (Affymetrix PrimeView) and GSEA
# Format: cell-based, human
# Parameters: RFU PODN (11730768_x_at) / Fold change /veh PODN (11730768_x_at) / RFU LINC00158 (11744669_a_at) / Fold change /veh LINC00158 (11744669_a_at) / RFU DUSP10 (11751237_a_at) / Fold change /veh DUSP10 (11751237_a_at) / RFU ID3 (11757404_x_at) / Fold change /veh ID3 (11757404_x_at) / RFU PLEKHG5 (11737974_s_at) / Fold change /veh PLEKHG5 (11737974_s_at) / RFU LRRC4B (11730491_at) / Fold change /veh LRRC4B (11730491_at) / RFU GIMAP4 (11747438_a_at) / Fold change /veh GIMAP4 (11747438_a_at) / RFU KRT8 (11758183_x_at) / Fold change /veh KRT8 (11758183_x_at) / RFU CNN1 (11734310_a_at) / Fold change /veh CNN1 (11734310_a_at) / RFU VPS37D (11726825_at) / Fold change /veh VPS37D (11726825_at) / RFU C10orf10 (11716522_x_at) / Fold change /veh C10orf10 (11716522_x_at) / RFU KIR2DL2 /// KIR2DL4 /// KIR2DL5A /// KIR2DL5B /// KIR2DS1 /// KIR2DS2 /// KIR2DS3 /// KIR2DS4 /// KIR3DL3 /// KIR3DL3 /// KIR3DS1 (11738374_at) / Fold change /veh KIR2DL2 /// KIR2DL4 /// KIR2DL5A /// KIR2DL5B /// KIR2DS1 /// KIR2DS2 /// KIR2DS3 /// KIR2DS4 /// KIR3DL3 /// KIR3DL3 /// KIR3DS1 (11738374_at) / RFU C1QL1 (11718748_at) / Fold change /veh C1QL1 (11718748_at) / RFU TMPRSS4 (11747572_a_at) / Fold change /veh TMPRSS4 (11747572_a_at) / RFU HAMP (11756126_x_at) / Fold change /veh HAMP (11756126_x_at) / RFU RNFT2 (11725882_a_at) / Fold change /veh RNFT2 (11725882_a_at) / RFU NR4A2 (11747474_a_at) / Fold change /veh NR4A2 (11747474_a_at) / RFU ABCC12 (11746883_a_at) / Fold change /veh ABCC12 (11746883_a_at) / RFU TMEM136 (11760407_x_at) / Fold change /veh TMEM136 (11760407_x_at) / RFU CLDN22 /// WWC2 (11732394_at) / Fold change /veh CLDN22 /// WWC2 (11732394_at) / RFU HLA-DPB1 (11760878_x_at) / Fold change /veh HLA-DPB1 (11760878_x_at) / RFU SPINT1 (11716480_a_at) / Fold change /veh SPINT1 (11716480_a_at) / RFU GAP43 (11754022_s_at) / Fold change /veh GAP43 (11754022_s_at) / RFU A4GNT (11735810_at) / Fold change /veh A4GNT (11735810_at) / RFU PRB3 (11715151_x_at) / Fold change /veh PRB3 (11715151_x_at) / RFU TUBB4B (11761932_at) / Fold change /veh TUBB4B (11761932_at) / RFU CAPN14 (11732068_a_at) / Fold change /veh CAPN14 (11732068_a_at) / RFU TMCC2 (11721928_a_at) / Fold change /veh TMCC2 (11721928_a_at) / RFU IRGQ (11745062_a_at) / Fold change /veh IRGQ (11745062_a_at) / RFU FAM174B (11720279_a_at) / Fold change /veh FAM174B (11720279_a_at) / RFU TMPRSS4 (11748680_a_at) / Fold change /veh TMPRSS4 (11748680_a_at) / RFU FAM212B (11763350_a_at) / Fold change /veh FAM212B (11763350_a_at) / RFU PLEKHG5 (11743358_a_at) / Fold change /veh PLEKHG5 (11743358_a_at) / RFU ZSCAN30 (11745921_a_at) / Fold change /veh ZSCAN30 (11745921_a_at) / RFU CMKLR1 (11741424_a_at) / Fold change /veh CMKLR1 (11741424_a_at) / RFU LOC101060620 /// MAPK8IP1 (11723275_at) / Fold change /veh LOC101060620 /// MAPK8IP1 (11723275_at) / RFU SPTSSB (11747773_x_at) / Fold change /veh SPTSSB (11747773_x_at) / RFU PRSS12 (11739890_at) / Fold change /veh PRSS12 (11739890_at) / RFU BIN1 (11741810_x_at) / Fold change /veh BIN1 (11741810_x_at) / RFU WNT11 (11732464_a_at) / Fold change /veh WNT11 (11732464_a_at) / RFU C10orf10 (11716521_a_at) / Fold change /veh C10orf10 (11716521_a_at) / RFU C5orf56 (11738089_at) / Fold change /veh C5orf56 (11738089_at) / RFU CYB561 (11721691_x_at) / Fold change /veh CYB561 (11721691_x_at) / RFU ANKRD19P (11752326_a_at) / Fold change /veh ANKRD19P (11752326_a_at) / RFU OR2T12 /// OR2T33 /// OR2T8 (11738714_s_at) / Fold change /veh OR2T12 /// OR2T33 /// OR2T8 (11738714_s_at) / RFU VCAN (11748164_a_at) / Fold change /veh VCAN (11748164_a_at) / RFU JSRP1 (11732532_at) / Fold change /veh JSRP1 (11732532_at) / RFU KRTAP10-11 (11738290_x_at) / Fold change /veh KRTAP10-11 (11738290_x_at) / RFU MYO3A (11730013_a_at) / Fold change /veh MYO3A (11730013_a_at) / RFU EBF3 (11725865_a_at) / Fold change /veh EBF3 (11725865_a_at) / RFU CAMK2N1 (11719241_x_at) / Fold change /veh CAMK2N1 (11719241_x_at) / RFU C5orf56 (11738088_a_at) / Fold change /veh C5orf56 (11738088_a_at) / RFU OLFML3 (11715873_a_at) / Fold change /veh OLFML3 (11715873_a_at) / RFU LOC100653217 /// NTM (11731650_a_at) / Fold change /veh LOC100653217 /// NTM (11731650_a_at) / RFU MAPK11 (11762145_a_at) / Fold change /veh MAPK11 (11762145_a_at) / RFU FIZ1 (11724087_x_at) / Fold change /veh FIZ1 (11724087_x_at) / RFU OASL (11726364_x_at) / Fold change /veh OASL (11726364_x_at) / RFU SOX15 (11748057_x_at) / Fold change /veh SOX15 (11748057_x_at) / RFU CD79A (11719716_a_at) / Fold change /veh CD79A (11719716_a_at) / RFU HIST1H1D (11736915_at) / Fold change /veh HIST1H1D (11736915_at) / RFU CASKIN2 (11723855_a_at) / Fold change /veh CASKIN2 (11723855_a_at) / RFU LOC730098 (11760151_x_at) / Fold change /veh LOC730098 (11760151_x_at) / RFU OR4N2 (11742367_at) / Fold change /veh OR4N2 (11742367_at) / RFU PRRT2 (11749266_a_at) / Fold change /veh PRRT2 (11749266_a_at) / RFU SNX32 (11753110_a_at) / Fold change /veh SNX32 (11753110_a_at) / RFU CDHR5 (11726645_a_at) / Fold change /veh CDHR5 (11726645_a_at) / RFU RCAN1 (11760418_a_at) / Fold change /veh RCAN1 (11760418_a_at) / RFU FAM167A (11723789_a_at) / Fold change /veh FAM167A (11723789_a_at) / RFU FAM26E (11764081_at) / Fold change /veh FAM26E (11764081_at) / RFU ISYNA1 (11749810_s_at) / Fold change /veh ISYNA1 (11749810_s_at) / RFU ACY1 (11761880_at) / Fold change /veh ACY1 (11761880_at) / RFU 11764098_at / Fold change /veh 11764098_at / RFU SAMD14 (11745864_x_at) / Fold change /veh SAMD14 (11745864_x_at) / RFU NPB (11741838_a_at) / Fold change /veh NPB (11741838_a_at) / RFU TMPRSS6 (11731388_a_at) / Fold change /veh TMPRSS6 (11731388_a_at) / RFU KRTAP10-2 (11738614_at) / Fold change /veh KRTAP10-2 (11738614_at) / RFU ARHGAP8 /// PRR5-ARHGAP8 (11727945_x_at) / Fold change /veh ARHGAP8 /// PRR5-ARHGAP8 (11727945_x_at) / RFU KRTAP5-7 /// NADSYN1 (11734609_at) / Fold change /veh KRTAP5-7 /// NADSYN1 (11734609_at) / RFU RASL12 (11751679_a_at) / Fold change /veh RASL12 (11751679_a_at) / RFU CDKN2B (11736163_a_at) / Fold change /veh CDKN2B (11736163_a_at) / RFU PRF1 (11729649_at) / Fold change /veh PRF1 (11729649_at) / RFU, ZNF638 /// ZNF638-IT1 / Fold change vs veh, ZNF638 /// ZNF638-IT1 / RFU, PANK3 / Fold change vs veh, PANK3 / RFU, SH3YL1 / Fold change vs veh, SH3YL1 / RFU, ZEB2 / Fold change vs veh, ZEB2 / RFU, NRIP1 / Fold change vs veh, NRIP1 / RFU, PTTG1IP / Fold change vs veh, PTTG1IP / RFU, CAPN2 / Fold change vs veh, CAPN2 / RFU, MED14 / Fold change vs veh, MED14 / RFU, SNORA58 / Fold change vs veh, SNORA58 / RFU, C1orf63 / Fold change vs veh, C1orf63 / RFU, LRRFIP1 / Fold change vs veh, LRRFIP1 / RFU, NDUFAF7 / Fold change vs veh, NDUFAF7 / RFU, SLC12A2 / Fold change vs veh, SLC12A2 / RFU, IBTK / Fold change vs veh, IBTK / RFU, ESF1 / Fold change vs veh, ESF1 / Fold change vs veh, TMEM50B / RFU, TAOK1 / Fold change vs veh, TAOK1 / RFU, ACBD3 / Fold change vs veh, ACBD3 / RFU, TMA16 / Fold change vs veh, TMA16 / RFU, RWDD3 / Fold change vs veh, RWDD3 / RFU, BCAT1 / Fold change vs veh, BCAT1 / RFU, EDEM3 / Fold change vs veh, EDEM3 / RFU, TMEM33 / Fold change vs veh, TMEM33 / RFU, WDR75 / Fold change vs veh, WDR75 / RFU, AHCTF1 / Fold change vs veh, AHCTF1 / RFU, TFRC / Fold change vs veh, TFRC / RFU, ZDHHC17 / Fold change vs veh, ZDHHC17 / RFU, NOM1 / Fold change vs veh, NOM1 / RFU, ARL8B / Fold change vs veh, ARL8B / RFU, ZBTB11 / Fold change vs veh, ZBTB11 / RFU, TAMM41 / Fold change vs veh, TAMM41 / RFU, KIAA1704 /// LOC100996395 / Fold change vs veh, KIAA1704 /// LOC100996395 / RFU, ING1 / Fold change vs veh, ING1 / RFU, TRMT61B / Fold change vs veh, TRMT61B / RFU, FUBP3 / Fold change vs veh, FUBP3 / RFU, TP53 / Fold change vs veh, TP53 / RFU, TNKS2 / Fold change vs veh, TNKS2 / RFU, ZFP14 / Fold change vs veh, ZFP14 / RFU, ACTR2 / Fold change vs veh, ACTR2 / RFU, PPP3R1 / Fold change vs veh, PPP3R1 / RFU, PIK3R1 / Fold change vs veh, PIK3R1 / RFU, HNRNPA1 / Fold change vs veh, HNRNPA1 / RFU, RNF170 / Fold change vs veh, RNF170 / RFU, ZNF28 / Fold change vs veh, ZNF28 / RFU, RNGTT / Fold change vs veh, RNGTT / RFU, OGT / Fold change vs veh, OGT / RFU, BRD1 / Fold change vs veh, BRD1 / RFU, MARS / Fold change vs veh, MARS / RFU, ZNF655 / Fold change vs veh, ZNF655 / RFU, FAHD1 / Fold change vs veh, FAHD1 / RFU, BDP1 / Fold change vs veh, BDP1 / RFU, LRRCC1 / Fold change vs veh, LRRCC1 / RFU, ARID1A / Fold change vs veh, ARID1A / RFU, ZNF146 / Fold change vs veh, ZNF146 / RFU, ZNF330 / Fold change vs veh, ZNF330 / RFU, GPN3 / Fold change vs veh, GPN3 / RFU, C9orf123 / Fold change vs veh, C9orf123 / RFU, N4BP2L2 / Fold change vs veh, N4BP2L2 / RFU, ARFIP1 / Fold change vs veh, ARFIP1 / RFU, FAM179B / Fold change vs veh, FAM179B / RFU, BCL10 / Fold change vs veh, BCL10 / RFU, UHRF1BP1L / Fold change vs veh, UHRF1BP1L / RFU, BET1 / Fold change vs veh, BET1 / RFU, CNOT2 / Fold change vs veh, CNOT2 / RFU, ZNF268 / Fold change vs veh, ZNF268 / Fold change vs veh, ZNF507 / RFU, DGCR2 / Fold change vs veh, DGCR2 / RFU, WDSUB1 / Fold change vs veh, WDSUB1 / Fold change vs veh, HSP90B1 /// MIR3652 / RFU, ADSS / Fold change vs veh, ADSS / RFU, GK / Fold change vs veh, GK / RFU, ZNF148 / Fold change vs veh, ZNF148 / RFU, TAF9 / Fold change vs veh, TAF9 / RFU, SLC1A5 / Fold change vs veh, SLC1A5 / RFU, SLMO2 / Fold change vs veh, SLMO2 / RFU, ABCC4 / Fold change vs veh, ABCC4 / RFU, LOC101060439 /// RAP1B / Fold change vs veh, LOC101060439 /// RAP1B / RFU, RFX7 / Fold change vs veh, RFX7 / RFU, GTPBP10 / Fold change vs veh, GTPBP10 / RFU, CNEP1R1 / Fold change vs veh, CNEP1R1 / RFU, BIVM-ERCC5 /// ERCC5 / Fold change vs veh, BIVM-ERCC5 /// ERCC5 / RFU, ILF3 / Fold change vs veh, ILF3 / RFU 11762660_at / Fold change /veh 11762660_at / RFU VCAN (11757783_s_at) / Fold change /veh VCAN (11757783_s_at) / RFU DDX43 (11728927_at) / Fold change /veh DDX43 (11728927_at) / RFU KRT8 (11758188_x_at) / Fold change /veh KRT8 (11758188_x_at) / RFU NKD1 (11759106_at) / Fold change /veh NKD1 (11759106_at) / RFU SRD5A1 (11742802_a_at) / Fold change /veh SRD5A1 (11742802_a_at) / RFU TPSAB1 /// TPSB2 (11721975_s_at) / Fold change /veh TPSAB1 /// TPSB2 (11721975_s_at) / RFU GSTM3 (11746129_a_at) / Fold change /veh GSTM3 (11746129_a_at) / RFU IL23R (11737362_x_at) / Fold change /veh IL23R (11737362_x_at) / RFU TMEM51 (11727254_a_at) / Fold change /veh TMEM51 (11727254_a_at) / RFU PIWIL2 (11732686_x_at) / Fold change /veh PIWIL2 (11732686_x_at) / RFU ORM1 (11744905_x_at) / Fold change /veh ORM1 (11744905_x_at) / RFU CCDC152 (11743942_at) / Fold change /veh CCDC152 (11743942_at) / RFU ECM1 (11717891_a_at) / Fold change /veh ECM1 (11717891_a_at) / RFU IL23R (11748794_a_at) / Fold change /veh IL23R (11748794_a_at) / RFU TNFAIP8L3 (11732012_x_at) / Fold change /veh TNFAIP8L3 (11732012_x_at) / RFU MBOAT4 (11741988_at) / Fold change /veh MBOAT4 (11741988_at) / RFU 11764193_at / Fold change /veh 11764193_at / RFU TMEM53 (11763286_at) / Fold change /veh TMEM53 (11763286_at) / RFU MAGEB2 (11727129_at) / Fold change /veh MAGEB2 (11727129_at) / RFU TMEM200A (11744735_a_at) / Fold change /veh TMEM200A (11744735_a_at) / RFU CCDC152 (11751479_a_at) / Fold change /veh CCDC152 (11751479_a_at) / RFU FAM211A (11726209_a_at) / Fold change /veh FAM211A (11726209_a_at) / RFU RGS16 (11746705_a_at) / Fold change /veh RGS16 (11746705_a_at) / RFU VCAN (11755009_s_at) / Fold change /veh VCAN (11755009_s_at) / RFU RHOB (11743442_s_at) / Fold change /veh RHOB (11743442_s_at) / RFU RGS16 (11720943_a_at) / Fold change /veh RGS16 (11720943_a_at) / RFU RGS16 (11720944_at) / Fold change /veh RGS16 (11720944_at) / RFU, VPS4B / Fold change vs veh, VPS4B / RFU, CREB1 / Fold change vs veh, CREB1 / RFU, DNAJC13 / Fold change vs veh, DNAJC13 / RFU, GNAQ / Fold change vs veh, GNAQ / RFU, CDK5R1 / Fold change vs veh, CDK5R1 / RFU, ZRANB3 / Fold change vs veh, ZRANB3 / RFU, CUL4A / Fold change vs veh, CUL4A / RFU, CCNY / Fold change vs veh, CCNY / RFU, UFL1 / Fold change vs veh, UFL1 / RFU, COG3 / Fold change vs veh, COG3 / RFU, DIAPH2 / Fold change vs veh, DIAPH2 / RFU, SKA2 / Fold change vs veh, SKA2 / RFU, AFF3 / Fold change vs veh, AFF3 / RFU, LMF1 / Fold change vs veh, LMF1 / RFU, IPO11 / Fold change vs veh, IPO11 / RFU, DFFB / Fold change vs veh, DFFB / RFU, FOXP1 / Fold change vs veh, FOXP1 / RFU, CARD8 / Fold change vs veh, CARD8 / RFU, STRN3 / Fold change vs veh, STRN3 / RFU, ADK / Fold change vs veh, ADK / RFU, RASSF2 / Fold change vs veh, RASSF2 / RFU, WIPF1 / Fold change vs veh, WIPF1 / RFU, LARP1B / Fold change vs veh, LARP1B / RFU, RASA1 / Fold change vs veh, RASA1 / RFU, RB1 / Fold change vs veh, RB1 / RFU, PPFIA1 / Fold change vs veh, PPFIA1 / RFU, MAT2A / Fold change vs veh, MAT2A / RFU, CCT5 / Fold change vs veh, CCT5 / RFU, WDR92 / Fold change vs veh, WDR92 / RFU, CUX1 / Fold change vs veh, CUX1 / RFU, TTC7A / Fold change vs veh, TTC7A / RFU, TMEM135 / Fold change vs veh, TMEM135 / RFU, DEPTOR / Fold change vs veh, DEPTOR / RFU, CPM / Fold change vs veh, CPM / RFU, DNAJB6 / Fold change vs veh, DNAJB6 / RFU, CACNA2D3 / Fold change vs veh, CACNA2D3 / RFU, DTX4 / Fold change vs veh, DTX4 / RFU, TFCP2 / Fold change vs veh, TFCP2 / RFU, GMCL1 /// GMCL1P1 / Fold change vs veh, GMCL1 /// GMCL1P1 / RFU, AEBP2 / Fold change vs veh, AEBP2 / RFU, SNHG1 /// SNORD22 /// SNORD25 /// SNORD26 /// SNORD27 /// SNORD28 /// SNORD29 /// SNORD31 / Fold change vs veh, SNHG1 /// SNORD22 /// SNORD25 /// SNORD26 /// SNORD27 /// SNORD28 /// SNORD29 /// SNORD31 / Fold change (Aza/veh), C12orf56 (ProbeSet 11735607_a_at) / Fold change (ACY-1035/veh), C12orf56 (ProbeSet 11735607_a_at) / Fold change (Aza/veh), FGFR1OP (ProbeSet 11751329_s_at) / Fold change (ACY-1035/veh), FGFR1OP (ProbeSet 11751329_s_at) / Fold change (Aza/veh), VPS36 (ProbeSet 11739960_a_at) / Fold change (ACY-1035/veh), VPS36 (ProbeSet 11739960_a_at) / RFU SYPL1 (11715823_x_at) / Fold change /veh SYPL1 (11715823_x_at) / RFU IGFBP7 (11715501_s_at) / Fold change /veh IGFBP7 (11715501_s_at) / RFU REEP3 (11722064_at) / Fold change /veh REEP3 (11722064_at) / RFU IGLL1 (11728026_x_at) / Fold change /veh IGLL1 (11728026_x_at): dose or concentration left out as unconfirmed
# Details: MV-4-11 cells, 48 hours
compound,measurement,value
Nc1ccc(-c2cccs2)cc1NC(=O)c1ccc2c(c1)cc(C1CC1)n2CCN1CCOCC1 [ACY-1035],RFU CCDC152 (11743942_at),5.45 RFU
